Tests used:
RANTES [1] = experiment: RSV-induced RANTES secretion in A549 cells (ELISA); type: cell-based, human; settings: for RSV-induced RANTES production: A549 cells, 24 hours, ELISA; for RSV-induced RANTES secretion: concentration not given, data not shown
Method: (§1) Cell culture and infection of epithelial cells with RSV. A549, human alveolar type II-like epithelial cells (ATCC, Manassas, Va.), were maintained in F12K medium containing 10% (v/v) fetal bovine serum (FBS), 10 mM glutamine, 100 IU/ml penicillin and 100 μg/ml streptomycin. Small alveolar epithelial cells (SAE) were obtained from Clonetics (San Diego, Calif.) and grown according to the company instructions. Cell monolayers were infected with RSV at multiplicity of infection (MOI) of 1 (unless otherwise stated), as described (17). An equivalent amount of a 20% sucrose solution was added to uninfected A549 cells, as a control. For the antioxidant experiments, cells were pretreated with the antioxidants for one hour and then infected in the presence of the antioxidants. Since BHA was diluted in ethanol, equal amounts of ethanol were added to untreated cells, as a control. Total number of cells, cell viability and viral replication, following antioxidant treatment, were measured by trypan blue exclusion and by plaque assay, respectively. RANTES ELISA. Immunoreactive RANTES was quantitated by a double antibody ELISA kit (DuoSet, R&D Systems, Minneapolis, Minn.) following the manufacturer's protocol.

STAT = experiment: RSV-induced STAT activation in alveolar epithelial cells; type: cell-based
RANTES [2] = experiment: RSV-induced RANTES secretion in SAE cells (ELISA); type: cell-based, human; settings: 20 mM, 24 hours, ELISA
Method: as §1

NOS-2 = settings: retinal epithelial cells, LPS/Interferon-γ; Faure et al. (40); cited from earlier work

C[S+](C)[O-] [DMSO, dimethylsulphoxide]
RSV-induced RANTES production (RANTES [1]; 2% (v/v)): significantly block

c1ccc2c(c1)[I+]c1ccccc1-2 [DPI]
STAT activation following RSV infection (STAT): greatly reduces (or abolishes)

COC(=O)[C@@H](N)CCCNC(=N)N[N+](=O)[O-] [L-NAME]
RSV-induced RANTES secretion (RANTES [1]): no changes

CNC(=N)NCCC[C@H](N)C(=O)O [L-NMMA]
RSV-induced RANTES secretion (RANTES [1]): no changes

CC(=O)N[C@@H](CS)C(=O)O [NAC, N-acetyl cystein, reference compound]
RSV-induced RANTES production (RANTES [2]): significantly reduced | RSV-induced RANTES production (RANTES [1]; 20 mM): significantly block

S=C(S)N1CCCC1 [PDTC]
NOS-2 induction (NOS-2): able to inhibit

CN(C)C(=S)N(C)C [TMTU, tetramethyl thiourea, reference compound]
RSV-induced RANTES production (RANTES [2]): significantly reduced | RSV-induced RANTES production (RANTES [1]; 20 mM): significantly block
